pIC50: −log10 of the molar value.

Results on 20 compounds are retold here after US10717716B2, “1,3,4-oxadiazole derivative compounds as histone deacetylase 6 inhibitor, and the pharmaceutical composition comprising the same” (Chong Kun Dang Pharmaceutical Corp., priority 2015, dated 2020).

For the test, the target named is T1, human recombinant HDAC6 (Homo sapiens, UniProt Q9UBN7).
T1 construct: purchased Calbiochem 382180
T1 sequence (Q9UBN7 1-1215): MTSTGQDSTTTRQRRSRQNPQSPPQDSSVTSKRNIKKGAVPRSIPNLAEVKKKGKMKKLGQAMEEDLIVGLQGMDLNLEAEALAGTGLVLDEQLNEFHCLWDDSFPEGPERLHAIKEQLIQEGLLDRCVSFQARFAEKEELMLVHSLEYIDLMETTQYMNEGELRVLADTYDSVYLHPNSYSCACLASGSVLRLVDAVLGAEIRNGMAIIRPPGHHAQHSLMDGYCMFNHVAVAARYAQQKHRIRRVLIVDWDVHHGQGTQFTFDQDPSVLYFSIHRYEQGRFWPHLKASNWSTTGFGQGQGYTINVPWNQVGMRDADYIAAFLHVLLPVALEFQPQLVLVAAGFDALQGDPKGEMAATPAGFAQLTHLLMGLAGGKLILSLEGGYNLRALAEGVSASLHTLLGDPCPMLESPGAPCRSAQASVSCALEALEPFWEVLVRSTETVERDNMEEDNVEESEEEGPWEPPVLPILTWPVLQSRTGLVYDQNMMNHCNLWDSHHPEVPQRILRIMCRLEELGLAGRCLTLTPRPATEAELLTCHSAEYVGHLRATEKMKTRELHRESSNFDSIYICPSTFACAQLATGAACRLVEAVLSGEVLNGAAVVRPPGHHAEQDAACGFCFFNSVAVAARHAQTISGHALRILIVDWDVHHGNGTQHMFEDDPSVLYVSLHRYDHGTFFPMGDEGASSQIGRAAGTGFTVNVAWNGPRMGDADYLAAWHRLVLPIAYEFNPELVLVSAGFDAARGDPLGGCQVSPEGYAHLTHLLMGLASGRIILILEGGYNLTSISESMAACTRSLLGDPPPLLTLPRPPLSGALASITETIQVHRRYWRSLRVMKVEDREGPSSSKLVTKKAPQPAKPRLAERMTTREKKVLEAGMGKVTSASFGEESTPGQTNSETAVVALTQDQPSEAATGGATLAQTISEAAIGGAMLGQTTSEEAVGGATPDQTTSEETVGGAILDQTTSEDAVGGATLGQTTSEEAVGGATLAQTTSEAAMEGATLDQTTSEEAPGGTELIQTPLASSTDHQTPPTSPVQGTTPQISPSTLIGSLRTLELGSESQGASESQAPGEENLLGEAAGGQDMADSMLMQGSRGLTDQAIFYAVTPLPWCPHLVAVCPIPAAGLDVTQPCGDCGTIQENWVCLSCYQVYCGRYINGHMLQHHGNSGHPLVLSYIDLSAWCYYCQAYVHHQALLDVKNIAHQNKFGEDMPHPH
The experiment in a line: HDAC6 enzyme activity inhibition assay (HDAC Fluorimetric Drug Discovery Kit). The test is classed as biochemical. To be noted: for HDAC6 selectivity (fold): HDAC6 over HDAC1; for pIC50: human recombinant HDAC6, same protocol as HDAC1, read-out: HDAC6. The essentials: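 Human recombinant HDAC1 or HDAC6 (0.3 μg) reacted with 10 μM Fluor de Lys-SIRT1 substrate and 5-fold compound dilutions for 60 min at 30 °C. Developer II added for 30 min, fluorescence read at Ex 360/Em 460; IC50 calculated from the readings.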

In the case of `Cc1ccccc1N(Cc1ccc(-c2nnc(C(F)F)o2)cc1F)C(=O)N1CCN(C)CC1` [Compound 21469, N-(4-(5-(difluoromethyl)-1,3,4-oxadiazol-2-yl)-2-fluorobenzyl)-4-methyl-N-(o-tolyl)piperazine-1-carboxamide], the “HDAC6 selectivity (fold)” value was found to be 244 fold and the pIC50 is 7.39.
Take `Cc1cccc(N(Cc2ccc(-c3nnc(C(F)F)o3)cc2F)C(=O)N2CCN(C)CC2)c1` [Compound 21470, N-(4-(5-(difluoromethyl)-1,3,4-oxadiazol-2-yl)-2-fluorobenzyl)-4-methyl-N-(m-tolyl)piperazine-1-carboxamide]: the “HDAC6 selectivity (fold)” value is reported as 313 fold and the pIC50 was 7.49.
For `Cc1ccc(N(Cc2ccc(-c3nnc(C(F)F)o3)cc2F)C(=O)N2CCN(C)CC2)cc1` [Compound 21471, N-(4-(5-(difluoromethyl)-1,3,4-oxadiazol-2-yl)-2-fluorobenzyl)-4-methyl-N-(p-tolyl)piperazine-1-carboxamide], the “HDAC6 selectivity (fold)” value was determined as 213 fold and the pIC50 was 7.33.
On the same counts, the results for `COc1ccccc1N(Cc1ccc(-c2nnc(C(F)F)o2)cc1F)C(=O)N1CCN(C)CC1` [Compound 21472, N-(4-(5-(difluoromethyl)-1,3,4-oxadiazol-2-yl)-2-fluorobenzyl)-N-(2-methoxyphenyl)-4-methylpiperazine-1-carboxamide] are 217 fold and 7.34.
For `COc1cccc(N(Cc2ccc(-c3nnc(C(F)F)o3)cc2F)C(=O)N2CCN(C)CC2)c1` [Compound 21473, N-(4-(5-(difluoromethyl)-1,3,4-oxadiazol-2-yl)-2-fluorobenzyl)-N-(3-methoxyphenyl)-4-methylpiperazine-1-carboxamide], the “HDAC6 selectivity (fold)” value is on record as 313 fold and the pIC50 was 7.49.
On to `COc1ccccc1N(Cc1ccc(-c2nnc(C(F)F)o2)cc1)C(=O)N1CCS(=O)(=O)CC1` [Compound 21474, N-(4-(5-(difluoromethyl)-1,3,4-oxadiazol-2-yl)benzyl)-N-(2-methoxyphenyl)thiomorpholine-4-carboxamide 1,1-dioxide], for which the “HDAC6 selectivity (fold)” value is reported as 77 fold and the pIC50 is 6.89.
On the same counts, the results for `COc1cccc(N(Cc2ccc(-c3nnc(C(F)F)o3)cc2)C(=O)N2CCS(=O)(=O)CC2)c1` [Compound 21475, N-(4-(5-(difluoromethyl)-1,3,4-oxadiazol-2-yl)benzyl)-N-(3-methoxyphenyl)thiomorpholine-4-carboxamide 1,1-dioxide] are 145 fold and 7.16.
Consider `Cc1cccc(N(Cc2ccc(-c3nnc(C(F)F)o3)cc2)C(=O)N2CCS(=O)(=O)CC2)c1` [Compound 21476, N-(4-(5-(difluoromethyl)-1,3,4-oxadiazol-2-yl)benzyl)-N-(m-tolyl)thiomorpholine-4-carboxamide 1,1-dioxide], for which the “HDAC6 selectivity (fold)” value came out at 196 fold and the pIC50 is 7.29.
On the same counts, the results for `COc1ccc(N(Cc2ccc(-c3nnc(C(F)(F)F)o3)cc2F)C(=O)N2CCS(=O)(=O)CC2)cc1` [Compound 21477, N-(2-fluoro-4-(5-(trifluoromethyl)-1,3,4-oxadiazol-2-yl)benzyl)-N-(4-methoxyphenyl)thiomorpholine-4-carboxamide 1,1-dioxide] are 137 fold and 7.14.
For `COc1ccc(N(Cc2ccc(-c3nnc(C(F)F)o3)cc2F)C(=O)N2CCS(=O)(=O)CC2)cc1` [Compound 21478, N-(4-(5-(difluoromethyl)-1,3,4-oxadiazol-2-yl)-2-fluorobenzyl)-N-(4-methoxyphenyl)thiomorpholine-4-carboxamide 1,1-dioxide] the same measures were 270 fold and 7.43.
As for `COc1ccccc1N(Cc1ccc(-c2nnc(C(F)(F)F)o2)cc1F)C(=O)N1CCS(=O)(=O)CC1` [Compound 21479, N-(2-fluoro-4-(5-(trifluoromethyl)-1,3,4-oxadiazol-2-yl)benzyl)-N-(2-methoxyphenyl)thiomorpholine-4-carboxamide 1,1-dioxide], the “HDAC6 selectivity (fold)” value is recorded as 167 fold and the pIC50 is 7.22.
For `COc1ccccc1N(Cc1ccc(-c2nnc(C(F)F)o2)cc1F)C(=O)N1CCS(=O)(=O)CC1` [Compound 21480, N-(4-(5-(difluoromethyl)-1,3,4-Oxadiazol-2-yl)-2-fluorobenzyl)-N-(2-methoxyphenyl)thiomorpholine-4-carboxamide 1,1-dioxide], the “HDAC6 selectivity (fold)” value is 204 fold and the pIC50 is 7.31.
On the same counts, the results for `COc1cccc(N(Cc2ccc(-c3nnc(C(F)(F)F)o3)cc2F)C(=O)N2CCS(=O)(=O)CC2)c1` [Compound 21481, N-(2-fluoro-4-(5-(trifluoromethyl)-1,3,4-oxadiazol-2-yl)benzyl)-N-(3-methoxyphenyl)thiomorpholine-4-carboxamide 1,1-dioxide] are 172 fold and 7.24.
`COc1cccc(N(Cc2ccc(-c3nnc(C(F)F)o3)cc2F)C(=O)N2CCS(=O)(=O)CC2)c1` [Compound 21482, N-(4-(5-(difluoromethyl)-1,3,4-oxadiazol-2-yl)-2-fluorobenzyl)-N-(3-methoxyphenyl)thiomorpholine-4-carboxamide 1,1-dioxide]: the “HDAC6 selectivity (fold)” value was 323 fold and the pIC50 is 7.51.
On to `Cc1cccc(N(Cc2ccc(-c3nnc(C(F)(F)F)o3)cc2F)C(=O)N2CCS(=O)(=O)CC2)c1` [Compound 21483, N-(2-fluoro-4-(5-(trifluoromethyl)-1,3,4-oxadiazol-2-yl)benzyl)-N-(m-tolyl)thiomorpholine-4-carboxamide 1,1-dioxide], for which the “HDAC6 selectivity (fold)” value is reported as 141 fold and the pIC50 is 7.15.
For `Cc1cccc(N(Cc2ccc(-c3nnc(C(F)F)o3)cc2F)C(=O)N2CCS(=O)(=O)CC2)c1` [Compound 21484, N-(4-(5-(difluoromethyl)-1,3,4-oxadiazol-2-yl)-2-fluorobenzyl)-N-(m-tolyl)thiomorpholine-4-carboxamide 1,1-dioxide] the same measures were 476 fold and 7.68.
In the case of `O=C(N1CCS(=O)(=O)CC1)N(Cc1ccc(-c2nnc(C(F)F)o2)cc1)c1ccc(-c2ccccc2)cc1` [Compound 21486, N-([1,1′-biphenyl]-4-yl)-N-(4-(5-(difluoromethyl)-1,3,4-oxadiazol-2-yl)benzyl)thiomorpholine-4-carboxamide 1,1-dioxide], the “HDAC6 selectivity (fold)” value is 120 fold and the pIC50 was 7.08.
On the same counts, the results for `Cn1ncc2ccc(-c3ccc(N(Cc4ccc(-c5nnc(C(F)F)o5)cc4)C(=O)N4CCS(=O)(=O)CC4)cc3)cc21` [Compound 21488, N-(4-(5-(difluoromethyl)-1,3,4-oxadiazol-2-yl)benzyl)-N-(4-(1-methyl-1H-indazol-6-yl)phenyl)thiomorpholine-4-carboxamide 1,1-dioxide] are 90 fold and 6.95.
For the compound `O=C(N1CCS(=O)(=O)CC1)N(Cc1ccc(-c2nnc(C(F)F)o2)cc1)c1ccc(-c2cccnc2)cc1` [Compound 21490, N-(4-(5-(difluoromethyl)-1,3,4-oxadiazol-2-yl)benzyl)-N-(4-(pyridin-3-yl)phenyl)thiomorpholine-4-carboxamide 1,1-dioxide], the “HDAC6 selectivity (fold)” value was found to be 270 fold and the pIC50 is 7.43.
For `O=C(N1CCS(=O)(=O)CC1)N(Cc1ccc(-c2nnc(C(F)F)o2)cc1)c1ccc(-c2ccoc2)cc1` [Compound 21492, N-(4-(5-(difluoromethyl)-1,3,4-oxadiazol-2-yl)benzyl)-N-(4-(furan-3-yl)phenyl)thiomorpholine-4-carboxamide 1,1-dioxide] the same measures were 278 fold and 7.44.
